From patent US20220401385A1, “Combination Therapy Based on PD-1 Signaling Inhibitors” (Kyoto University, priority 2019, published 2022)
“Also recorded” adds a separate entry of the source.

Columns and labels:
[1] = test system: draining lymph node CD8+ T cells; assay: Seahorse OCR/ECAR of draining lymph node CD8+ T cells of treated mice; format: in vivo, C57BL/6 mice; details: combined therapy compared to PD-1 inhibition alone
Method: FIG. 2-1 a) Treated mice were analyzed for draining lymph nodes and the inside of tumor. Briefly, draining lymph nodes of mice were isolated 13 days after tumor inoculation, and stained with antibodies to CD8 and Sca-1. FACS diagram and percentages of Sca-1^+ cells in CD8^+ T cells are shown. b) CD8^+ T cells in isolated draining lymph nodes were stimulated with CD3/CD28 antibody beads. After 24 hours, cell proliferation was examined by means of ^3H uptake. At the same time, IFN-γ concentration in culture supernatant was measured. c) Tumor from the same mice as described above was treated with collagenase. Then, expression rates of PD-1 and Tim3 in tumor-infiltrating CD8^+ T cells were analyzed. d) Oxygen consumption rate (OCR) and extracellular acidification rate (ECAR) of draining lymph node CD8^+ T cells were measured with a Seahorse analyzer (N=3 wells). For statistical analysis, ANOVA was used. * p<0.05, ** p<0.01, *** p<0.001, **** p<0.0001.
(§1) Oxygen consumption rates were measured using an XF96 Extracellular Flux Analyzer (Seahorse Bioscience). CD8^+ T cells (4×10^5) per well were seeded in a determined XF96 plate. The four chemical modulators of mitochondrial oxidative phosphorylation, which came with an XF Cell Mito Stress Test Kit (Seahorse Bioscience), were added to the module sequentially. In brief, basal OCR measurement was performed […] sequential addition of oligomycin, FCCP, and rotenone/antimycin A. SRC and ATP production rates were calculated by the following formulas:
(§2) SRC (pmo; 02/min)=OCRmaximal−OCRbasal
(§3) mitoATP (pmol ATP/min)=(OCRbasal−OCRoligo)×5.5.

CD44 high CD8+ T cells = assay: Seahorse OCR, ATP production and SRC in vitro, CD44 high cells; format: cell-based, mice; details: SPD 0.2 μM
Method: FIG. 4 CD8^+ T cells were isolated from the spleen of mice without tumor inoculation, and further isolated into CD44^+ (CD44 high) and CD44^− (CD44 low) cell populations. a) CD44 low cells were simulated with CD3/CD28 antibody beads and SPD (0.2 μM). After 30 minutes, 1 hour, 2 hours and 72 hours, OCR was measured with a Seahorse analyzer. b) At the same time, total ATP production and glycolytic pathway-derived or mitochondrial activity-derived ATP production were calculated at 30-minute, 1-hour and 2-hour. c) CD44 low cells (2×10^5 cells) were stimulated with CD3/CD28 antibody beads and SPD (0.2 μM). After 24 hours, cell proliferation was examined by means of 3H uptake. d) Spare respiratory capacity (SRC) was calculated from the OCR measurement after 72 hours in a), and results with and without SPD were compared. e) CD44 low cells were stimulated with CD3/CD28 antibody beads and SPD (0.2 μM). After 24 hours, frequencies between apoptotic and viable cells were calculated by PI and Annexin staining. f-j) CD44 high cells were analyzed under the same conditions and by the same methods as described in a-e) above. As regards statistical analysis, t-test was used for comparison of two groups, and ANOVA was used for comparison of three or more groups. * p<0.05, ** p<0.01, *** p<0.001, **** p<0.0001.
as §1, §2, §3

MethA or CT26 cells = assay: MethA or CT26 tumor model; format: in vivo, BALB/c mice; details: BALB/c mouse, MethA (SPD 1 mg/kg) or CT26 (SPD 4 mg/kg), with PD-L1 antibody 2 mg/kg
Method: FIG. 2-2 a-b) MethA or CT26 cells were intradermally inoculated into BALB/c mice. Ten days after inoculation, PD-L1 antibody (2 mg/kg), PD-L1 antibody+SPD (1 mg/kg for Meth A, 4 mg/kg for CT26) or SPD alone was administered. c) LLC cells were intradermally inoculated into C57BL/6 mice. Ten days after inoculation, mice were treated in the same manner as described in a-b) above. SPD was administered at 4 mg/kg. d) MC38 cells were inoculated into C57BL/6 Rag2^−/− mice. Ten days after inoculation, mice were treated in the same manner as described in a-b) above. SPD was administered at 5 mg/kg. Tumor growth curve and survival curve are shown.

CD8+ T cells = assay: Proliferation (3H uptake) of spleen CD8+ T cells of treated aged mice; format: in vivo; details: 56-week old mice; SPD combination group; 20 hours CD3/CD28, 3H uptake
Method: FIG. 7 MC38 cells (5×10^5) were intradermally inoculated into 56-week old mice, which were treated along with the treatment schedule described in FIG. 1. PD-L1 antibody (2 mg/kg) and SPD (2 mg/kg) were used. a) Tumor growth curve and survival curve are shown. b) The frequency of CD8^+ T cells among lymphocytes infiltrating into tumor (in CD45^+ gate) and the absolute number of CD8^+ T cells per mg tumor 13 days after tumor inoculation are shown. c) CD8^+ T cells were isolated from spleen cells on the same schedule as b) and cultured for 20 hours under the stimulation with CD3/CD28. Cell proliferation was examined by means of ^3H uptake. d) CD8^+ T cells were isolated from draining lymph nodes on the same schedule as b) and glycolytic pathway-derived or mitochondrial metabolism-derived ATP production was calculated by Seahorse. e) Spare respiratory capacity (SRC) was also calculated in the experiment (d).
It is known from mouse model experiments that the effect of PD-1 inhibitory antibody therapy decreases in aged mice due to their decreased immunity. […] CD8^+ T cells were isolated from draining lymph nodes 13 days after tumor inoculation and glycolytic pathway-derived or mitochondrial metabolism-derived ATP production was calculated by Seahorse. Spare respiratory capacity (SRC) was also calculated. […]

Q: With `NCCCCNCCCN` [SPD, spermidine] as the molecule, how does the “glycolysis (ECAR) of CD8+ T cells” value [1] read?
A: increased

Q: And the “oxygen consumption (OCR) of CD8+ T cells” value [1]?
A: increased

Q: And the “spare respiratory capacity (SRC) of CD8+ T cells” value [1]?
A: increased

Q: What about the “ATP production via glycolysis (glyco ATP)” value (CD44 high CD8+ T cells; 1 to 2 hours after stimulation) of the same molecule?
A: not enhanced

Q: What about the “ATP production via mitochondria (mito ATP)” value (CD44 high CD8+ T cells; 1 to 2 hours after stimulation) of the same molecule?
A: not enhanced

Q: What about the ATP production (CD44 high CD8+ T cells; 30 minutes after stimulation) of the same molecule?
A: tendency to be enhanced

Q: And the “mitochondrial oxygen consumption (OCR)” value (CD44 high CD8+ T cells; 30 minutes after stimulation)?
A: increased

Q: What about the “mitochondrial oxygen consumption (OCR)” value (CD44 high CD8+ T cells; 1 hour and 2 hours after stimulation) of the same molecule?
A: decreased

Q: What about the “spare respiratory capacity (SRC)” value (CD44 high CD8+ T cells; 72 hours) of the same molecule?
A: enhanced; also recorded: significantly high

Q: What about the “mitochondrial oxygen consumption (OCR)” value (CD44 high CD8+ T cells; 72 hours after stimulation) of the same molecule?
A: increased again

Q: And the “effect of SPD for enhancing the antitumor immunity of PD-1 inhibition” value (MethA or CT26 cells)?
A: confirmed

Q: What about the “proliferative activation of spleen CD8+ T cells” value (CD8+ T cells) of the same molecule?
A: enhanced
